Data published in the supplement of paper PMC10307832.

Key:
Experiment in all cases: relative viability (nuclei count vs DMSO), 5 days (fraction); higher = more cells survive
[1] = compound: CC1=C(CC(=O)O)c2cc(F)ccc2/C1=C\c1ccc([S+](C)[O-])cc1 [Sulindac] + N=C(N)NC(=N)NCCc1ccccc1 [Phenformin] (partner 250 µM)
How it was run: (§1)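 Values are medians from duplicate plates. Each reflects relative viability, defined as the nuclei count of treated wells over that of vehicle wells. Lung cancer cell lines in 1536-well plates were pin-tool dosed one day after seeding with one drug alone or with a fixed anchor-drug dose plus five library-drug doses (not always all listed) in √10 steps, then fixed, stained and imaged at 4× after 5 days.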

[2] = compound: CN[C@@H]1C[C@H]2O[C@@](C)([C@@H]1OC)n1c3ccccc3c3c4c(c5c6ccccc6n2c5c31)C(=O)NC4 [Staurosporine] + C[C@@H](Oc1cc(-c2cnn(C3CCNCC3)c2)cnc1N)c1c(Cl)ccc(F)c1Cl [Crizotinib] (partner 1 µM)
How it was run: as §1

[3] = compound: O=c1[nH]cc(F)c(=O)[nH]1 [5-Fluorouracil] + CS(=O)(=O)CCNCc1ccc(-c2ccc3ncnc(Nc4ccc(OCc5cccc(F)c5)c(Cl)c4)c3c2)o1 [Lapatinib] (partner 2 µM)
How it was run: as §1

[4] = compound: CN[C@@H]1C[C@H]2O[C@@](C)([C@@H]1OC)n1c3ccccc3c3c4c(c5c6ccccc6n2c5c31)C(=O)NC4 [Staurosporine] + CCNC(=O)c1noc(-c2cc(C(C)C)c(O)cc2O)c1-c1ccc(CN2CCOCC2)cc1 [Luminespib] (partner 0.01 µM)
How it was run: as §1

| Cell Line | relative viability ([1]; first compound 0.08 µM) | relative viability ([1]; first compound 0.253 µM) | relative viability ([1]; first compound 0.8 µM) | relative viability ([1]; first compound 2.53 µM) | relative viability ([1]; first compound 8 µM) | relative viability ([2]; first compound 0.005 µM) | relative viability ([2]; first compound 0.01581 µM) | relative viability ([2]; first compound 0.05 µM) | relative viability ([2]; first compound 0.1581 µM) | relative viability ([2]; first compound 0.5 µM) | relative viability ([3]; first compound 0.02 µM) | relative viability ([3]; first compound 0.2 µM) | relative viability ([3]; first compound 0.6325 µM) | relative viability ([3]; first compound 2 µM) | relative viability ([4]; first compound 0.005 µM) | relative viability ([4]; first compound 0.01581 µM) | relative viability ([4]; first compound 0.05 µM) | relative viability ([4]; first compound 0.1581 µM) | relative viability ([4]; first compound 0.5 µM) |
| --- | --- | --- | --- | --- | --- | --- | --- | --- | --- | --- | --- | --- | --- | --- | --- | --- | --- | --- | --- |
| NCI-H358 | 0.362 | 0.369 | 0.221 | 0.312 | 0.385 | 0.386 | 0.225 | 0.106 | 0.116 | 0.0764 | 0.509 | 0.508 | 0.435 | 0.352 | 0.563 | 0.198 | 0.359 | 0.167 | 0.0923 |
| NCI-H460 | 1.03 | 0.666 | 0.201 | 0.543 | 0.585 | 0.708 | 0.677 | 0.0267 | 0.0065 | 0.0073 | 0.964 | 0.446 | 0.106 | 0.0598 | 0.0316 | 0.0208 | 0.0244 | 0.0122 | 0.0179 |
| NCI-H520 | 0.738 | 0.949 | 0.412 | 0.347 | 0.67 | 0.711 | 0.448 | 0.279 | 0.188 | 0.11 | 0.952 | 0.856 | 0.459 | 0.333 | 0.194 | 0.309 | 0.233 | 0.212 | 0.185 |
| NCI-H596 | 0.839 | 0.892 | 0.56 | 0.71 | 0.771 | 1.16 | 0.959 | 0.447 | 0.189 | 0.156 | 1.05 | 0.944 | 0.645 | 0.516 | 1.19 | 0.719 | 0.509 | 0.237 | 0.3 |
| NCI-H647 | 0.647 | 0.717 | 0.246 | 0.623 | 0.645 | 0.53 | 0.295 | 0.162 | 0.0569 | 0.0579 | 1.14 | 1.2 | 1.07 | 0.687 | 0.128 | 0.174 | 0.0674 | 0.0695 | 0.0608 |
| NCI-H650 | 0.448 | 0.466 | 0.389 | 0.471 | 0.502 | 0.443 | 0.333 | 0.271 | 0.196 | 0.151 | 0.555 | 0.681 | 0.524 | 0.455 | 0.474 | 0.248 | 0.235 | 0.11 | 0.092 |
| NCI-H661 | 0.244 | 0.258 | 0.28 | 0.246 | 0.277 | 1.03 | 0.9 | 0.81 | 0.501 | 0.415 | 0.482 | 0.526 | 0.558 | 0.51 | 0.986 | 0.707 | 0.604 | 0.436 | 0.211 |
| NCI-H727 | 0.406 | 0.554 | – | 0.564 | 0.584 | 0.3 | 0.322 | 0.228 | 0.181 | 0.164 | 1.08 | 1 | 0.743 | 0.594 | 0.291 | 0.373 | 0.252 | 0.223 | 0.183 |
| NCI-H838 | 0.519 | 0.652 | 0.364 | 0.518 | 0.6 | 0.259 | 0.179 | 0.175 | 0.168 | 0.127 | 0.918 | 1.03 | 0.433 | 0.271 | 0.247 | 0.135 | 0.138 | 0.107 | 0.113 |
| NCI-H1355 | 0.451 | 0.506 | – | 0.44 | 0.46 | 0.834 | 0.727 | 0.366 | 0.258 | 0.234 | 0.97 | 0.899 | 0.39 | 0.311 | 0.591 | 0.278 | 0.212 | 0.209 | 0.191 |
| NCI-H1437 | 0.251 | 0.321 | 0.197 | 0.301 | 0.373 | 0.924 | 0.702 | – | 0.545 | 0.449 | – | 0.231 | 0.142 | 0.142 | 1.05 | – | 0.774 | 0.367 | 0.26 |
| NCI-H1563 | 0.647 | 0.626 | 0.608 | 0.694 | 0.677 | 0.696 | 0.559 | 0.635 | 0.587 | 0.503 | 0.769 | 0.942 | 0.975 | 0.74 | 0.54 | 0.481 | 0.504 | 0.446 | 0.408 |
| NCI-H1650 | 0.372 | 0.481 | – | 0.41 | 0.53 | 0.537 | 0.389 | 0.242 | 0.197 | 0.106 | 0.707 | 0.758 | 0.563 | 0.445 | 0.168 | 0.18 | 0.183 | 0.16 | 0.169 |
| NCI-H1651 | 0.399 | 0.342 | – | 0.307 | 0.362 | 0.945 | 0.765 | 0.575 | 0.549 | 0.385 | 1.04 | 0.701 | 0.471 | 0.435 | 0.793 | 0.614 | 0.459 | 0.173 | 0.116 |
| NCI-H1666 | 0.564 | 0.629 | 0.561 | 0.529 | 0.631 | 0.536 | 0.528 | 0.418 | 0.236 | 0.2 | 0.726 | 0.418 | 0.378 | 0.318 | 0.758 | 0.582 | 0.604 | 0.38 | 0.279 |
| NCI-H1734 | 0.402 | 0.337 | – | 0.396 | 0.496 | 0.627 | 0.4 | 0.279 | 0.165 | 0.132 | 1.11 | 1.14 | 0.808 | 0.392 | 0.112 | 0.0831 | 0.511 | 0.0656 | 0.0444 |
| NCI-H1755 | 0.645 | 0.653 | 0.525 | 0.643 | 0.648 | 0.569 | 0.352 | 0.179 | 0.176 | 0.163 | 1.06 | 0.848 | 0.327 | 0.263 | 0.276 | 0.214 | 0.155 | 0.195 | 0.155 |
